The source of these data is paper PMC3403540, “Active Hydrophilic Components of the Medicinal Herb Salvia miltiorrhiza (Danshen) Potently Inhibit Organic Anion Transporters 1 (Slc22a6) and 3 (Slc22a8)” (Evidence-based Complementary and Alternative Medicine : eCAM, 2012).

Structures are written as SMILES.

For this test, the target named is T1, mOat3 (Mus musculus, UniProt O88909).
T1 construct: expressed in transfected cells; host or cells: CHO (Chinese hamster ovary), stably transfected (CHO-mOat3)
T1 sequence (O88909 1-537): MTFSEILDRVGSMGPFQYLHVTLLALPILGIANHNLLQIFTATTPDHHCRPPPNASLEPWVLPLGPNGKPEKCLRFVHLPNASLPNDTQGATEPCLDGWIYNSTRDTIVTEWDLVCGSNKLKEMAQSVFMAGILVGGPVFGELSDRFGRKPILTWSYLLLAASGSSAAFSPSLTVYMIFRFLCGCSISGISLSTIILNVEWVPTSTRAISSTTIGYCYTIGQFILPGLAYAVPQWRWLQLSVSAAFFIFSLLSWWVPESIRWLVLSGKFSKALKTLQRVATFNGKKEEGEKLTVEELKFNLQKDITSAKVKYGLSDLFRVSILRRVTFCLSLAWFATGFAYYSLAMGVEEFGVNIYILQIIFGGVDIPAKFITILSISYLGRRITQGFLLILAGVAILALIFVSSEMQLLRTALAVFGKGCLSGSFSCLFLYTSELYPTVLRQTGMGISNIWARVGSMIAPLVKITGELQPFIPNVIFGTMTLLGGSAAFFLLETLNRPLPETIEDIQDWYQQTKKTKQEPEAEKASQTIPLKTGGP
Put plainly: Inhibition of mOat3-mediated [3H]ES uptake in CHO-mOat3 cells (cell accumulation assay). As to conditions: for Ki / inhibition at 1000 µM: 1 μM [3H]ES; for Ki: 1 min, CHO-mOat3, mean ± S.E.M. (n = 3), from IC50 via Cheng-Prusoff, read-out: Estimated K i for mOat3-mediated transport; for inhibition at 1000 µM: 1 mM (1000 μM) inhibitor, 10 min, CHO-mOat3 cells, read-out: inhibition of mOat3-mediated ES uptake; for mode of inhibition of mOat3-mediated transport: mixed inhibition model, ES substrate. It is filed as cell-based, murine. As for the experimental part: Derivation of the stably transfected Chinese hamster ovary (CHO) cell lines expressing mOat1 (CHO-mOat1), mOat3 (CHO-mOat3), and the empty vector (FRT) transfected control cell line (CHO-FRT) was described previously.
Cell transport assay procedures were adapted from those previously published. In brief, 2 × 10^5 cells/well were seeded in 24-well tissue culture plates and grown in the absence of antibiotics for 48 hr. On the day of the experiment, cells were equilibrated with transport buffer for 10 min (500 μL of Hanks' balanced salt solution containing 10 mM HEPES, pH 7.4). […] After incubation, cells were immediately rinsed three times with ice-cold transport buffer, lysed, and analyzed via liquid scintillation counting. Uptake values were normalized to corresponding total protein content in cell lysates as determined by the Bradford method. Substrate accumulation is reported as picomoles of substrate per milligram protein. […] Kinetic calculations were performed using GraphPad Prism Software version 5.0 (GraphPad Software Inc., San Diego, CA, USA). Michaelis constant (K m) values were calculated by nonlinear regression using the Michaelis-Menten model. Mode of inhibition was identified by using mixed model inhibition analysis as follows: (1) Vmax Apparent =Vmax/(1+[I]/(α×Ki)),Km Apparent=Km1+[I]/Ki/(1+[I]/(α×Ki)),Y=Vmax Apparent×x/Km Apparent+x, where V max, K i, and I represent the maximum transport velocity without inhibitor, the inhibition constant generated from the data set under analysis, and the concentration of inhibitor, respectively. In this study, three curves were constructed (no inhibitor, plus two selected inhibitor concentrations) with uptake of substrate plotted as a function of its concentration for each condition. […] The parameter, α, can then be used to determine the mode of inhibition. When α is very large (α > 1), it indicates competitive inhibition. Otherwise, it indicates noncompetitive inhibition (α = 1) or uncompetitive inhibition (0 < α < 1). To estimate K i values, IC50 values were calculated using nonlinear regression and inserted into the Cheng-Prusoff equation: K i = IC50/(1 + [Substrate]/K m). Results were confirmed by repeating all experiments at least three times with triplicate wells for each data point in every experiment.
Figure 2 Inhibition profile of mOat1 and mOat3. […] (5 μM) by LSA, PCA, RMA, SAA, SAB, TSL, and probenecid (1000 μM) was measured in the CHO-mOat1 cells (10 min). […] (b) Inhibition of mOat3-mediated uptake of [^3H]ES (1 μM) by LSA, PCA, RMA, SAA, SAB, TSL, and probenecid (1000 μM) was measured in the CHO-mOat3 cells (10 min). […] Values are mean ± S.D. of triplicate values. ***denotes P < 0.001 as determined by one-way ANOVA followed by Dunnett's t-test.
Figure 5 K i determination for LSA, RMA, and SAA in the CHO-mOat3 cell line. One minute uptake of [^3H]ES (1 μM) in CHO-mOat3 cells was measured in the presence of increasing concentrations (10^−7 to 4 × 10^−4 M) of LSA, RMA, and SAA. Data were corrected for nonspecific background measured in the CHO-FRT cells prior to kinetic analysis. K i values were determined with non-linear regression and the “one-site competition” model using GraphPad Prism software. Graphs shown are from representative experiments with values plotted as mean ± S.D. (n = 3).

In general, inhibition refers to the change of the read-out against control, counted positive when it falls. Regarding `O=C(/C=C/c1ccc(O)c2c1[C@H](C(=O)O)[C@@H](c1ccc(O)c(O)c1)O2)O[C@H](Cc1ccc(O)c(O)c1)C(=O)O` [LSA, lithospermic acid], the Ki is 31.1 ± 7 µM, the inhibition at 1000 µM is > 91% and the “mode of inhibition of mOat3-mediated transport” value is given as “competitive”.

In the case of `O=C(O)C(O)Cc1ccc(O)c(O)c1` (centres unmarked) [TSL, tanshinol], the inhibition at 1000 µM is ~55%.

Consider `O=C(/C=C/c1ccc(O)c(O)c1)O[C@H](Cc1ccc(O)c(O)c1)C(=O)O` [RMA, rosmarinic acid], for which the Ki was 4.3 ± 0.2 µM, the inhibition at 1000 µM was > 91% and the “mode of inhibition of mOat3-mediated transport” value is “competitive”.

For `O=C(/C=C/c1ccc(O)c(O)c1/C=C/c1ccc(O)c(O)c1)O[C@H](Cc1ccc(O)c(O)c1)C(=O)O` [SAA, salvianolic acid A], the Ki was 21.3 ± 7.7 µM, the inhibition at 1000 µM was > 91% and the “mode of inhibition of mOat3-mediated transport” value is listed as “competitive”. Further, the “Estimated α value from mixed inhibition model analysis, mOat3” value (1 μM ES for 1 min, mean, α > 1 indicates competitive inhibition) is on record as 3.4 × 10^14.
